# Results published in patent US8674118B2, “Compounds and methods for the treatment or prevention of flavivirus infections” (priority 2005, dated 2014).
# pIC50: −log10 of the molar value.
# Test system: HCV RNA replication (replicon cell lines Huh-7, 5.2 and ET)
# Experiment: Cell-Based Luciferase Reporter HCV RNA Replication Assay
# Conditions: Hepatitis C virus, Huh-7, 96 h
row,Compound,pIC50
1,"CCON=C1CCC(N(c2cc(C3=CCCCC3)sc2C(=O)O)C(=O)[C@H]2CC[C@H](C)CC2)CC1 (relative stereo) [Compound 54, 5-cyclohex-1-enyl-3-[(4-ethoxyimino-cyclohexyl)-(trans-4-methyl-cyclohexanecarbonyl)-amino]-thiophene-2-carboxylic acid]",> 5.30

# Same assay, conditions: Hepatitis C virus, Huh-7, 96 h, Huh-7, 5.2 or ET replicon cells, luciferase counts after 4 days incubation; read-out: IC50
row,Compound,pIC50
1,"CC1CCC(C(=O)N(c2cc(C3=CCCCC3)sc2C(=O)O)C2CCC3CCCCC3C2)CC1 (mixture of isomers) [Compound 65, 5-cyclohex-1-enyl-3-[(cis/trans-decahydro-naphthalen-2-yl)-(4-trans-methyl-cyclohexanecarbonyl)-amino]-thiophene-2-carboxylic acid]",> 5.30
2,"CC1CCC(C(=O)N(c2cc(C3CCC(O)CC3)sc2C(=O)O)C2CCC(O)CC2)CC1 (mixture of isomers) [Compound 85, 5-(4-cis/trans-hydroxy-cyclohexyl)-3-[(4-trans-hydroxy-cyclohexyl)-(4-trans-methyl-cyclohexanecarbonyl)-amino]-thiophene-2-carboxylic acid]",4.60 to 5.30
3,"COCC1CCC(N(C(=O)C2CCC(C)CC2)c2cc(C3=CCCCC3)sc2C(=O)O)CC1 (mixture of isomers) [Compound 126, 5-cyclohex-1-enyl-3-[(4-cis/trans-methoxymethyl-cyclohexyl)-(4-trans-methyl-cyclohexanecarbonyl)-amino]-thiophene-2-carboxylic acid]",> 5.30
4,"CC1CC=C(c2cc(N(C(=O)[C@H]3CC[C@H](C)CC3)[C@H]3CC[C@H](O)CC3)c(C(=O)O)s2)CC1 (relative stereo) [Compound 4, 3-[(trans-4-Hydroxy-cyclohexyl)-(trans-4-methyl-cyclohexanecarbonyl)-amino]-5-(4-methyl-cyclohex-1-enyl)-thiophene-2-carboxylic acid]",> 5.30
5,"CC(C)(C)C1CC=C(c2cc(N(C(=O)[C@H]3CC[C@H](C)CC3)[C@H]3CC[C@H](O)CC3)c(C(=O)O)s2)CC1 (relative stereo) [Compound 13, 5-(4-Tert-butyl-cyclohex-1-enyl)-3-[(trans-4-hydroxy-cyclohexyl)-(trans-4-methyl-cyclohexanecarbonyl)-amino]-thiophene-2-carboxylic acid]",> 5.30
6,"C[C@H]1CC[C@H](C(=O)N(c2cc(C3=CCCCC3)sc2C(=O)O)C2CCC(OC(=O)N3CCOCC3)CC2)CC1 (relative stereo) [Compound 18, Morpholine-4-carboxylic acid 4-[(2-carboxy-5-cyclohex-1-enyl-thiophen-3-yl)-(trans-4-methyl-cyclohexanecarbonyl)-amino]-cyclohexyl ester]",> 5.30
7,"COC(=O)C(NC(=O)O[C@H]1CC[C@H](N(c2cc(C3=CCCCC3)sc2C(=O)O)C(=O)[C@H]2CC[C@H](C)CC2)CC1)C(C)C (relative stereo) [Compound 19, 5-Cyclohex-1-enyl-3-[[trans-4-(1-methoxycarbonyl-2-methyl-propylcarbamoyloxy)-cyclohexyl]-(trans-4-methyl-cyclohexanecarbonyl)amino]-thiophene-2-carboxylic acid]",> 5.30
8,"CN1C(=O)N(C)C2(CCC(N(c3cc(C4=CCCCC4)sc3C(=O)O)C(=O)[C@H]3CC[C@H](C)CC3)CC2)C1=O (relative stereo) [Compound 32, 5-cyclohex-1-enyl-3-[(1,3-dimethyl-2,4-dioxo-1,3-diaza-spiro[4.5]dec-8-yl)-(trans-4-methyl-cyclohexanecarbonyl)-amino]-thiophene-2-carboxylic acid]",> 5.30
9,"C[C@H]1CC[C@H](C(=O)N(c2cc(C3=CCC(Oc4ccccc4)CC3)sc2C(=O)O)[C@H]2CC[C@H](O)CC2)CC1 (relative stereo) [Compound 33, 3-[(trans-4-hydroxy-cyclohexyl)-(trans-4-methyl-cyclohexanecarbonyl)-amino]-5-(4-phenoxy-cyclohex-1-enyl)-thiophene-2-carboxylic acid]",> 5.30
10,"CC1OCC(N(c2cc(C3=CCCCC3)sc2C(=O)O)C(=O)[C@H]2CC[C@H](C)CC2)CO1 (relative stereo) [Compound 36, 5-cyclohex-1-enyl-3-[(trans-4-methyl-cyclohexanecarbonyl)-(2-methyl-[1,3]dioxan-5-yl)-amino]-thiophene-2-carboxylic acid]",> 5.30
11,"CC1CCCC(N(c2cc(C3=CCCCC3)sc2C(=O)O)C(=O)[C@H]2CC[C@H](C)CC2)C1 (relative stereo) [Compound 39, 5-cyclohex-1-enyl-3-[(trans-4-methyl-cyclohexanecarbonyl)-(3-methyl-cyclohexyl)-amino]-thiophene-2-carboxylic acid]",> 5.30
12,"C[C@H]1CC[C@H](C(=O)N(c2cc(C3=CCCCC3)sc2C(=O)O)C2CC3CCC(C3)C2)CC1 (relative stereo) [Compound 40, 3-[bicyclo[3.2.1]oct-3-yl-(trans-4-methylcyclohexanecarbonyl)-amino]-5-cyclohex-1-enyl-thiophene-2-carboxylic acid]",> 5.30
13,"CC1CC=C(c2cc(N(C(=O)[C@H]3CC[C@H](C)CC3)C(C)C)c(C(=O)O)s2)CC1 (relative stereo) [Compound 43, 3-[isopropyl-(trans-4-methyl-cyclohexanecarbonyl)-amino]-5-(4-methyl-cyclohex-1-enyl)-thiophene-2-carboxylic acid]",> 5.30
14,"C[C@H]1CC[C@H](C(=O)N(c2cc(C3=CC(O)CCC3)sc2C(=O)O)[C@H]2CC[C@H](OC3CCCCO3)CC2)CC1 (relative stereo) [Compound 55, 5-(3-hydroxy-cyclohex-1-enyl)-3-{(trans-4-methyl-cyclohexanecarbonyl)-[trans-4-(tetrahydro-pyran-2-yloxy)-cyclohexyl]amino}-thiophene-2-carboxylic acid]",> 5.30
15,"C[C@H]1CC[C@H](C(=O)N(c2cc(C3=CCCCC3)sc2C(=O)O)C2CC[S+]([O-])CC2)CC1 (relative stereo) [Compound 69, 5-cyclohex-1-enyl-3-[(trans-4-methyl-cyclohexanecarbonyl)-(1-oxo-hexahydro-1lambda*4*-thiopyran-4-yl)-amino]-thiophene-2-carboxylic acid]",> 5.30
16,"CN1C(=O)N(C)C2(CCC(N(c3cc(C4=CCC(C)(C)CC4)sc3C(=O)O)C(=O)[C@H]3CC[C@H](C)CC3)CC2)C1=O (relative stereo) [Compound 75, 5-(4,4-dimethyl-cyclohex-1-enyl)-3-[(1,3-dimethyl-2,4-dioxo-1,3-diaza-spiro[4.5]dec-8-yl)-(trans-4-methyl-cyclohexanecarbonyl)-amino]-thiophene-2-carboxylic acid]",> 5.30
17,"CN1C(=O)N(C)C2(CCC(N(c3cc(C4CCC(C)(C)CC4)sc3C(=O)O)C(=O)[C@H]3CC[C@H](C)CC3)CC2)C1=O (relative stereo) [Compound 79, 5-(4,4-dimethyl-cyclohexyl)-3-[(1,3-dimethyl-2,4-dioxo-1,3-diaza-spiro[4.5]dec-8-yl)-(trans-4-methyl-cyclohexanecarbonyl)-amino]-thiophene-2-carboxylic acid]",> 5.30
18,"C[C@H]1CC[C@H](C(=O)N(c2cc(C3=CC(O)CCC3)sc2C(=O)O)[C@H]2CC[C@H](O)CC2)CC1 (relative stereo) [Compound 82, 5-(3-hydroxy-cyclohex-1-enyl)-3-[(trans-4-hydroxy-cyclohexyl)-(trans-4-methyl-cyclohexanecarbonyl)-amino]-thiophene-2-carboxylic acid]",4.60 to 5.30
19,"CO[C@H]1CC[C@H](N(c2cc(C3CCC(C(F)(F)F)CC3)sc2C(=O)O)C(=O)[C@H]2CC[C@H](C)CC2)CC1 (relative stereo) [Compound 108, 3-[(trans-4-methoxy-cyclohexyl)-(trans-4-methyl-cyclohexanecarbonyl)-amino]-5-(4-trifluoromethyl-cyclohexyl)-thiophene-2-carboxylic acid]",> 5.30
20,"CO[C@H]1CC[C@H](N(c2cc(C3=C(F)CCCC3F)sc2C(=O)O)C(=O)[C@H]2CC[C@H](C)CC2)CC1 (relative stereo) [Compound 119, 5-(2,6-difluoro-cyclohex-1-enyl)-3-[(trans-4-methoxy-cyclohexyl)-(trans-4-methyl-cyclohexanecarbonyl)-amino]-thiophene-2-carboxylic acid]",> 5.30
21,"CO[C@H]1CC[C@H](N(c2cc(C3=C(F)C(F)CCC3)sc2C(=O)O)C(=O)[C@H]2CC[C@H](C)CC2)CC1 (relative stereo) [Compound 120, 5-(2,3-difluoro-cyclohex-1-enyl)-3-[(trans-4-methoxy-cyclohexyl)-(trans-4-methyl-cyclohexanecarbonyl)-amino]-thiophene-2-carboxylic acid]",> 5.30
22,"CO[C@H]1CC[C@H](N(c2cc(C3=CCC(C(F)(F)F)CC3)sc2C(=O)O)C(=O)[C@H]2CC[C@H](C)CC2)CC1 (relative stereo) [Compound 124, 3-[(trans-4-methoxy-cyclohexyl)-(trans-4-methyl-cyclohexanecarbonyl)-amino]-5-(4-trifluoromethyl-cyclohex-1-enyl)-thiophene-2-carboxylic acid]",> 5.30
23,"CCC(=O)N(C)C1CCC(N(c2cc(C3=CCCCC3)sc2C(=O)O)C(=O)[C@H]2CC[C@H](C)CC2)CC1 (relative stereo) [Compound 140, 5-cyclohex-1-enyl-3-{(trans-4-methyl-cyclohexanecarbonyl)-[4-(methyl-propionyl-amino)-cyclohexyl]-amino}-thiophene-2-carboxylic acid]",> 5.30
24,"C[C@H]1CC[C@H](C(=O)N(c2cc(C3=CCCCC3)sc2C(=O)O)[C@H]2CC[C@H](O)CC2)CC1 [Compound 1, 5-Cyclohex-1-enyl-3-[(trans-4-hydroxy-cyclohexyl)-(trans-4-methyl-cyclohexanecarbonyl)-amino]-thiophene-2-carboxylic acid]",> 5.30
25,"C[C@H]1CC[C@H](C(=O)N(c2cc(C3CCCCC3)sc2C(=O)O)[C@H]2CC[C@H](O)CC2)CC1 [Compound 2, 5-Cyclohexyl-3-[(trans-4-hydroxy-cyclohexyl)-(trans-4-methyl-cyclohexanecarbonyl)-amino]-thiophene-2-carboxylic acid]",> 5.30
